Experiment [1] has as its target T1, interaction between GMPPNP-bound recombinant K-Ras4B G12C mutant protein and cRAF RAS-binding domain (cRAF-RBD) (Homo sapiens, UniProt P01116, G12C).
T1 construct: His-tag (N)
The experiment is described as follows: Inhibitory activity on interaction between KRAS G12C and cRAF (Alpha technology). Particulars: Table 2-1. The procedure, abridged:
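His-tagged K-Ras4B G12C (aa 1-169), GMPPNP-loaded, preincubated with compound 1 h at 25° C in pH 7.5 Tris buffer with MgCl2, TCEP, Tween 20. cRAF-RBD (aa 50-132) and Alpha reagents then added for 1.5 h; Alpha signal normalised to DMSO (0%) and GDP-bound KRAS (100%); IC50 from dose titration.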

In another experiment the test system is MIA PaCa-2 cells. The experiment is described as follows: Growth inhibition activity on KRAS-G12C mutant cell line (CellTiter-Glo 3D). Type of experiment: cell-based, human. The note with it: MIA PaCa-2, 3-day culture with compound, Table 3-1. The procedure, abridged: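 MIA PaCa-2 cells in RPMI1640 with 10% FBS, U-bottom wells, cultured 1 day before compound (0.2% DMSO final), then 3 days at 37 °C, 5% CO2. Viability by CellTiter-Glo 3D luminescence; growth inhibition versus untreated wells gives IC50 (nM).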
For orientation: ATP-based viability assays read luminescence as a measure of living cells.

Setting [2] is: IC50, GMPPNP-bound KRAS G12C incubated with compound 25° C. 1 hour.
The mark [3] stands for this setting: GMPPNP-bound KRAS G12C incubated with compound 25° C. 1 hour, read-out: IC50.

By IC50 is commonly meant the concentration needed to halve the response being measured.

Like-named read-outs stand apart in the source and are kept apart here.

T1 sequence (P01116 with tags, fused parts or gaps isoform P01116-2 G12C): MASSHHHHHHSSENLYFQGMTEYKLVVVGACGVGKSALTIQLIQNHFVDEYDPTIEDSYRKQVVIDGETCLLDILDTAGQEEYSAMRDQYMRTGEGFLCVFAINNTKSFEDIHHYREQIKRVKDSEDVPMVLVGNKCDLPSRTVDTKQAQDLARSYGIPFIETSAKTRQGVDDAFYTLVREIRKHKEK

Consider `Cc1cc2c(nc(C)n2C)c2c1-c1cccc3c(C(=O)c4cc(F)c(NC(=O)/C=C/CNC56CCC(CC5)OC6)c(F)c4)cn(c13)CCN2C` [Example 73, (E)-4-((2-oxabicyclo-[2.2.2]octan-4-yl)amino)-N-(2,6-difluoro-4-(6,8,9,11-tetramethyl-8,11,12,13-tetrahydro-imidazo[4″,5″:5′,6′]-benzo[1′,2′:5,6][1,4]-diazocino[7,8,1-hi]indole-2-carbonyl)phenyl)but-2-enamide], for which the IC50 in experiment [1] (setting [2]) was determined as 46.9 nM; in the experiment on MIA PaCa-2 cells it was 21.6 nM.

With `CO[C@H]1CC[C@H](NC/C=C/C(=O)Nc2c(F)cc(C(=O)c3cc4c5c(cccn35)-c3c(C(F)(F)F)cc5c(ncn5C)c3N(C)CC4)cc2F)CC1` [Example 74, (E)-N-(4-(9,12-dimethyl-7-(trifluoromethyl)-9,12,13,14-tetrahydro-imidazo[4″,5″:5′,6′]benzo-[1′,2′:2,3]azocino[4,5,6-hi]indolizine-2-carbonyl)-2,6-difluorophenyl)-4-(((1r,4r)-4-methoxycyclo-hexyl)amino)but-2-en-amide], the IC50 in experiment [1] (setting [3]) stood at 33.3 nM; in the experiment with MIA PaCa-2 cells (Homo sapiens, MIA PaCa-2, 72 h), 8.22 nM.

Turning to `CO[C@H]1CC[C@H](NC/C=C/C(=O)Nc2c(F)cc(C(=O)c3cn4c5c(cccc35)-c3c(C(F)(F)F)cc5c(nc(C)n5C)c3N(C)C(=O)C4)cc2F)CC1` [Example 76, (E)-N-(2,6-difluoro-4-(8,9,11-trimethyl-12-oxo-6-(trifluoromethyl)-8,11,12,13-tetrahydro-imidazo[4″,5″:5′,6′]benzo-[1′,2′:5,6][1,4]diazocino-[7,8,1-hi]indole-2-carbon-yl)phenyl)-4-(((1r,4r)-4-methoxycyclohexyl)-amino)but-2-enamide], the IC50 in experiment [1] (setting [2]) came out at 22.2 nM; with MIA PaCa-2 cells (Homo sapiens, MIA PaCa-2, 72 h), 7.14 nM.

In the case of `Cc1nc2c3c(c(C(F)(F)F)cc2n1C)-c1cccc2c(C(=O)c4cc(F)c(NC(=O)/C=C/CNC5(C)COC5)c(F)c4)cn(c12)CC(=O)N3C` [Example 77], the IC50 in experiment [1] (setting [2]) was determined as 80.4 nM; in the experiment on MIA PaCa-2 cells (Homo sapiens, MIA PaCa-2, 72 h), 54 nM.

As for `COc1cc2c(nc(C)n2C)c2c1-c1cccn3c(C(=O)c4cc(F)c(NC(=O)/C=C/CN[C@H]5CC[C@H](OC)CC5)c(F)c4)cc(c13)CCN2C` [Example 78, (E)-N-(2,6-difluoro-4-(7-methoxy-9,10,12-tri-methyl-9,12,13,14-tetra-hydroimidazo[4″,5″:5′,6′]-benzo[1′,2′:2,3]azocino-[4,5,6-hi]indolizine-2-carbonyl)phenyl)-4-(((1r,4r)-4-methoxycyclo-hexyl)amino)but-2-en-amide], the IC50 in experiment [1] (setting [3]) was determined as 33.7 nM; in the experiment on MIA PaCa-2 cells (Homo sapiens, MIA PaCa-2, 72 h), 6.92 nM.

For the molecule `COc1cc2c(nc(C)n2C)c2c1-c1cccn3c(C(=O)c4cc(F)c(NC(=O)/C=C/CNC(C)(C)C)c(F)c4)cc(c13)CCN2C` [Example 79, (E)-4-(tert-butylamino)-N-(2,6-difluoro-4-(7-methoxy-9,10,12-trimeth-yl-9,12,13,14-tetrahydro-imidazo[4″,5″:5′,6′]benzo-[1′,2′:2,3]azocino[4,5,6-hi]indolizine-2-carbonyl)-phenyl)but-2-enamide], the IC50 in experiment [1] (setting [3]) came to 32.8 nM; in the experiment with MIA PaCa-2 cells (Homo sapiens, MIA PaCa-2, 72 h) it was 10.6 nM.

For the molecule `Cn1cnc2c3c(c(C(F)(F)F)cc21)-c1cccc2c(C(=O)c4cc(F)c(NC(=O)/C=C/CNC5(C)COC5)c(F)c4)cn(c12)CCO3` [Example 80, (E)-N-(2,6-difluoro-4-(8-methyl-6-(trifluorometh-yl)-12,13-dihydro-8H-imidazo[4″,5″:3′,4′]benzo-[1′,2′:7,8][1,4]oxazocino-[6,5,4-hi]indole-2-carbon-yl)phenyl)-4-((3-methyl-oxetan-3-yl)amino)but-2-enamide], the IC50 in experiment [1] (setting [2]) turned out to be 28.3 nM; in the experiment with MIA PaCa-2 cells (Homo sapiens, MIA PaCa-2, 72 h), 22.2 nM.

With `CN1CCn2cc(C(=O)c3cc(F)c(NC(=O)/C=C/CNC(C)(C)CF)c(F)c3)c3cccc(c32)-c2c(C(F)(F)F)cc3c(ncn3C)c21` [Example 81, (E)-N-(4-(8,11-dimethyl-6-(trifluoromethyl)-8,11,12,13-tetrahydro-imidazo[4″,5″:5′,6′]benzo-[1′,2′:5,6][1,4]diazocino-[7,8,1-hi]indole-2-carbon-yl)-2,6-difluorophenyl)-4-((1-fluoro-2-methyl-propan-2-yl)amino)but-2-enamide], the IC50 in experiment [1] (setting [2]) was 20.8 nM; with MIA PaCa-2 cells (Homo sapiens, MIA PaCa-2, 72 h) it was 33.4 nM.

Regarding `Cc1nc2c3c(c(C(F)(F)F)cc2n1C)-c1cccc2c(C(=O)c4cc(F)c(NC(=O)/C=C/CNC(C)(C)CF)c(F)c4)cn(c12)CCN3C` [Example 82, (E)-N-(2,6-difluoro-4-(8,9,11-trimethyl-6-(trifluoromethyl)-8,11,12,13-tetrahydro-imidazo[4″,5″:5′,6′]benzo-[1′,2′:5,6][1,4]diazocino-[7,8,1-hi]indole-2-carbon-yl)phenyl)-4-((1-fluoro-2-methylpropan-2-yl)-amino)but-2-enamide], the IC50 in experiment [1] (setting [2]) is 24.9 nM; with MIA PaCa-2 cells (Homo sapiens, MIA PaCa-2, 72 h), 29.9 nM.

For the molecule `Cc1cc2c(nc(C)n2C)c2c1-c1cccc3c(C(=O)c4cc(F)c(NC(=O)/C=C/CNC5CC6(COC6)C5)c(F)c4)cn(c13)CCN2C` [Example 84, (E)-4-((2-oxaspiro[3.3]-heptan-6-yl)amino)-N-(2,6-difluoro-4-(6,8,9,11-tetramethyl-8,11,12,13-tetrahydroimidazo[4″,5″: 5′,6′]benzo[1′,2′:5,6]-[1,4]diazocino[7,8,1-hi]-indole-2-carbonyl)phenyl) but-2-enamide], the IC50 in experiment [1] (setting [2]) stood at 39.9 nM; in the experiment on MIA PaCa-2 cells (Homo sapiens, MIA PaCa-2, 72 h) it was 49.6 nM.

Turning to `CC(=O)C(C)(C)NC/C=C/C(=O)Nc1c(F)cc(C(=O)c2cn3c4c(cccc24)-c2c(C)cc4c(nc(C)n4C)c2N(C)CC3)cc1F` [Example 85, (E)-N-(2,6-difluoro-4-(6,8,9,11-tetramethyl-8,11,12,13-tetrahydro-imidazo[4″,5″:5′,6′]benzo-[1′,2′:5,6][1,4]diazocino-[7,8,1-hi]indole-2-carbon-yl)phenyl)-4-(2-methyl-3-oxobutan-2-ylamino)but-2-enamide], the IC50 in experiment [1] (setting [2]) is 61 nM; with MIA PaCa-2 cells (Homo sapiens, MIA PaCa-2, 72 h) it was 30.9 nM.

For the molecule `CC(=O)N1CCC(C)(NC/C=C/C(=O)Nc2c(F)cc(C(=O)c3cc4c5c(cccn35)-c3c(C(F)(F)F)cc5c(ncn5C)c3N(C)CC4)cc2F)CC1` [Example 86, (E)-4-((1-acetyl-4-methyl-piperidin-4-yl)amino)-N-(4-(9,12-dimethyl-7-(trifluoromethyl)-9,12,13,14-tetrahydro-imidazo[4″,5″:5′,6′]benzo-[1′,2′:2,3]azocino[4,5,6-hi]indolizine-2-carbonyl)-2,6-difluorophenyl)but-2-enamide], the IC50 in experiment [1] (setting [3]) came to 22.3 nM; in the experiment with MIA PaCa-2 cells (Homo sapiens, MIA PaCa-2, 72 h), 6.11 nM.

Take `CO[C@H]1CC[C@H](NC/C=C/C(=O)Nc2ccc(C(=O)c3cn4c5c(cccc35)-c3c(C(F)(F)F)cc5c(nc(C)n5C)c3N(C)CC4)nc2)CC1` [Example 88, (E)-4-(((1r,4r)-4-methoxy-cyclohexyl)amino)-N-(6-(8,9,11-trimethyl-6-(trifluoromethyl)-8,11,12,13-tetrahydro-imidazo[4″,5″:5′,6′]benzo-[1′,2′:5,6][1,4]diazocino-[7,8,1-hi]indole-2-carbon-yl)pyridin-3-yl)but-2-enamide]: the IC50 is 39.5 nM in experiment [1] (setting [3]) and 6.92 nM with MIA PaCa-2 cells (Homo sapiens, MIA PaCa-2, 72 h).

Turning to `Cc1nc2c3c(c(C(F)(F)F)cc2n1C)-c1cccc2c(C(=O)c4cc(F)c(NC(=O)/C=C/CNC5(C)COC5)c(F)c4)cn(c12)CCO3` [Example 91], the IC50 in experiment [1] (setting [2]) turned out to be 27.2 nM; in the experiment on MIA PaCa-2 cells (Homo sapiens, MIA PaCa-2, 72 h), 8.68 nM.

Turning to `COc1cc2c(nc(C)n2C)c2c1-c1cccn3c(C(=O)c4cc(F)c(NC(=O)/C=C/CNC(C)(C)CF)c(F)c4)cc(c13)CCN2C` [Example 93], the IC50 in experiment [1] (setting [3]) is 33.6 nM; with MIA PaCa-2 cells (Homo sapiens, MIA PaCa-2, 72 h), 51.6 nM.

With `Cc1cc2c(nc(C)n2C)c2c1-c1cccc3c(C(=O)c4cc(F)c(NC(=O)/C=C/CNCC(=O)N(C)C)c(F)c4)cn(c13)CCN2C` [Example 94, (E)-N-(2,6-difluoro-4-(6,8,9,11-tetramethyl-8,11,12,13-tetrahydro-imidazo[4″,5″:5′,6′]-benzo[1′,2′:5,6][1,4]-diazocino[7,8,1-hi]indole-2-carbonyl)phenyl)-4-((2-(dimethylamino)-2-oxoethyl)amino)but-2-enamide], the IC50 in experiment [1] (setting [2]) was found to be 71.6 nM; with MIA PaCa-2 cells (Homo sapiens, MIA PaCa-2, 72 h), 73 nM.

For the molecule `CN1CCc2cc(C(=O)c3cc(F)c(NC(=O)/C=C/CNCCO)c(F)c3)n3cccc(c23)-c2c(C(F)(F)F)cc3c(ncn3C)c21` [Example 96, (E)-N-(4-(9,12-dimethyl-7-(trifluoromethyl)-9,12,13,14-tetrahydro-imidazo[4″,5″:5′,6′]benzo-[1′,2′:2,3]azocino[4,5,6-hi]indolizine-2-carbonyl)-2,6-difluorophenyl)-4-((2-hydroxyethyl)amino)but-2-enamide], the IC50 in experiment [1] (setting [3]) is 30.6 nM; in the experiment on MIA PaCa-2 cells (Homo sapiens, MIA PaCa-2, 72 h), 14.5 nM.

For `CN1CCc2cc(C(=O)c3cc(F)c(NC(=O)/C=C/CN[C@@H]4CCCC[C@H]4O)c(F)c3)n3cccc(c23)-c2c(C(F)(F)F)cc3c(ncn3C)c21` [Example 100, (E)-N-(4-(9,12-dimethyl-7-(trifluoromethyl)-9,12,13,14-tetrahydro-imidazo[4″,5″:5′,6′]benzo-[1′,2′:2,3]azocino[4,5,6-hi]indolizine-2-carbonyl)-2,6-difluorophenyl)-4-(((1R,2R)-2-hydroxy-cyclohexyl)amino)but-2-enamide], the IC50 in experiment [1] (setting [3]) was found to be 34.5 nM; with MIA PaCa-2 cells (Homo sapiens, MIA PaCa-2, 72 h), 23.4 nM.

Turning to `CN1CCc2cc(C(=O)c3cc(F)c(NC(=O)/C=C/CN[C@H]4CCCC[C@@H]4O)c(F)c3)n3cccc(c23)-c2c(C(F)(F)F)cc3c(ncn3C)c21` [Example 101], the IC50 was 27.4 nM in experiment [1] (setting [3]) and 26.5 nM in the experiment with MIA PaCa-2 cells (Homo sapiens, MIA PaCa-2, 72 h).

The values above are taken from patent publication US20240262842A1, “SMALL MOLECULE INHIBITORS OF KRAS G12C MUTANT” (Merck Sharp & Dohme LLC, priority 2021, published 2024).
